# Assay results: PubChem BioAssay (NCI)
#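 Method: 48-hour compound exposure of cells in 96-well plates, five concentrations, linear interpolation of endpoints. Abbreviation: GI50, concentration required for 50% inhibition of growth. TGI marks complete inhibition of growth.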
# Assays:
# Experiment in all cases: NCI anticancer screen, dose series, 48 h
# [1] = system: CCRF-CEM leukemia
# [2] = system: HL-60(TB) leukemia
# [3] = system: HOP-92 NSCLC
# [4] = system: IGROV1 ovarian
# [5] = system: NCI/ADR-RES ovarian
# [6] = system: COLO 205 colon
# [7] = system: HCT-15 colon
# [8] = system: NCI-H522 lung
# [9] = system: 786-0 renal
# [10] = system: HCT-116 colon
# [11] = system: EKVX NSCLC
# [12] = system: SF-539 CNS
# [13] = system: SN12C renal
# [14] = system: MDA-MB-435
# [15] = system: HT29 colon
# [16] = system: RPMI-8226 leukemia
# [17] = system: UACC-62 melanoma
# [18] = system: SNB-75 CNS
# [19] = system: SF-268 CNS
# [20] = system: MALME-3M melanoma
# [21] = system: K-562 leukemia
# [22] = system: SK-OV-3 ovarian
# [23] = system: CAKI-1 renal
# [24] = system: SR leukemia
# [25] = system: SW-620 colon
# [26] = system: ACHN renal
# [27] = system: RXF 393 renal
# [28] = system: U251 CNS
# [29] = system: A549 NSCLC
# [30] = system: A498 renal
# [31] = system: OVCAR-4 ovarian
# [32] = system: SK-MEL-28 melanoma
# [33] = system: BT-549 breast
# [34] = system: OVCAR-3 ovarian
# [35] = system: HCC-2998 colon
# [36] = system: UO-31 renal
# [37] = system: SF-295 CNS
# [38] = system: SNB-19 CNS
# [39] = system: OVCAR-5 ovarian
# [40] = system: TK-10 renal
# [41] = system: DU-145 prostate
# [42] = system: NCI-H460 lung
# [43] = system: NCI-H226 lung
# [44] = system: HOP-62 NSCLC
# [45] = system: NCI-H23 lung
# [46] = system: LOX IMVI melanoma
# [47] = system: SK-MEL-2 melanoma
# [48] = system: MCF7 breast
# [49] = system: SK-MEL-5 melanoma
# [50] = system: MOLT-4 leukemia
# [51] = system: OVCAR-8 ovarian
# [52] = system: T-47D breast
# [53] = system: PC-3 prostate
# [54] = system: KM12 colon
# [55] = system: MDA-MB-231 breast
# [56] = system: M14 melanoma
# [57] = system: HS 578T breast
# [58] = system: UACC-257 melanoma
structure (smiles),measurement,setting,value
CCN1C(=O)N(CC)C2C1NN=C1SC(c3ccccc3)=CC(=O)N12 (configuration not stated),GI50,[1],428 nM
same,TGI,[1],> 100000 nM
same,GI50,[2],308 nM
same,GI50,[3],> 36300 nM
same,TGI,[3],> 100000 nM
same,GI50,[4],1090 nM
same,TGI,[4],> 100000 nM
same,GI50,[5],385 nM
same,TGI,[5],> 100000 nM
same,GI50,[6],429 nM
same,TGI,[6],2200 nM
same,GI50,[7],313 nM
same,TGI,[7],> 74900 nM
same,GI50,[8],228 nM
same,TGI,[8],772 nM
same,GI50,[9],472 nM
same,TGI,[9],> 100000 nM
same,GI50,[10],388 nM
same,TGI,[10],> 100000 nM
same,TGI,[11],> 100000 nM
same,GI50,[12],375 nM
same,TGI,[12],3030 nM
same,GI50,[13],596 nM
same,TGI,[13],> 100000 nM
same,GI50,[14],42.9 nM
same,TGI,[14],176 nM
same,GI50,[15],338 nM
same,GI50,[16],580 nM
same,TGI,[16],> 54300 nM
same,GI50,[17],343 nM
same,TGI,[17],> 100000 nM
same,GI50,[18],210 nM
same,GI50,[19],3050 nM
same,TGI,[19],> 100000 nM
same,GI50,[20],492 nM
same,TGI,[20],> 100000 nM
same,GI50,[21],258 nM
same,TGI,[21],> 100000 nM
same,GI50,[22],545 nM
same,TGI,[22],> 56100 nM
same,GI50,[23],357 nM
same,TGI,[23],> 100000 nM
same,GI50,[24],140 nM
same,TGI,[24],> 100000 nM
same,GI50,[25],349 nM
same,TGI,[25],> 100000 nM
same,GI50,[26],660 nM
same,TGI,[26],> 100000 nM
same,GI50,[27],198 nM
same,TGI,[27],538 nM
same,GI50,[28],546 nM
same,TGI,[28],> 100000 nM
same,GI50,[29],1020 nM
same,TGI,[29],> 100000 nM
same,GI50,[30],> 100000 nM
same,TGI,[30],> 100000 nM
same,GI50,[31],15700 nM
same,TGI,[31],> 100000 nM
same,GI50,[32],872 nM
same,TGI,[32],> 100000 nM
same,GI50,[33],330 nM
same,TGI,[33],25100 nM
same,GI50,[34],320 nM
same,TGI,[34],1590 nM
same,GI50,[35],1540 nM
same,TGI,[35],> 28200 nM
same,GI50,[36],605 nM
same,TGI,[36],> 100000 nM
same,GI50,[37],389 nM
same,TGI,[37],> 24900 nM
same,GI50,[38],730 nM
same,TGI,[38],> 100000 nM
same,GI50,[39],921 nM
same,TGI,[39],> 100000 nM
same,GI50,[40],53500 nM
same,TGI,[40],> 100000 nM
same,GI50,[41],717 nM
same,TGI,[41],> 100000 nM
same,GI50,[42],394 nM
same,TGI,[42],> 36900 nM
same,GI50,[43],561 nM
same,TGI,[43],> 72000 nM
same,GI50,[44],532 nM
same,TGI,[44],> 100000 nM
same,GI50,[45],1220 nM
same,TGI,[45],> 100000 nM
same,GI50,[46],562 nM
same,TGI,[46],> 100000 nM
same,GI50,[47],481 nM
same,TGI,[47],> 100000 nM
same,GI50,[48],277 nM
same,TGI,[48],> 100000 nM
same,GI50,[49],493 nM
same,TGI,[49],41800 nM
same,GI50,[50],809 nM
same,TGI,[50],> 100000 nM
same,GI50,[51],1470 nM
same,TGI,[51],> 20400 nM
same,GI50,[52],286 nM
same,TGI,[52],> 100000 nM
same,GI50,[53],515 nM
same,TGI,[53],> 100000 nM
same,GI50,[54],344 nM
same,TGI,[54],> 85600 nM
same,GI50,[55],2450 nM
same,TGI,[55],> 100000 nM
same,GI50,[56],344 nM
same,TGI,[56],> 100000 nM
same,GI50,[57],489 nM
same,TGI,[57],> 100000 nM
C#Cc1cc(OC)c(C(=O)Nc2ccc(F)cc2C(=O)Nc2cccc(S(=O)(=O)C(F)(F)F)c2)cn1,GI50,[2],28.9 nM
same,TGI,[2],84.5 nM
same,GI50,[3],20.1 nM
same,TGI,[3],53.9 nM
same,GI50,[4],20.8 nM
same,TGI,[4],51.2 nM
same,GI50,[5],52.1 nM
same,TGI,[5],340 nM
same,GI50,[6],1680 nM
same,TGI,[6],> 42700 nM
same,GI50,[7],629 nM
same,TGI,[7],2680 nM
same,GI50,[8],60.6 nM
same,TGI,[8],237 nM
same,GI50,[9],24.1 nM
same,TGI,[9],63.3 nM
same,GI50,[10],417 nM
same,TGI,[10],> 100000 nM
same,GI50,[11],290 nM
same,TGI,[11],1100 nM
same,GI50,[12],99.9 nM
same,TGI,[12],252 nM
same,GI50,[13],542 nM
same,TGI,[13],> 36700 nM
same,GI50,[14],1750 nM
same,TGI,[14],> 23800 nM
same,GI50,[15],447 nM
same,TGI,[15],2500 nM
same,GI50,[16],174 nM
same,TGI,[16],550 nM
same,GI50,[17],778 nM
same,TGI,[17],2310 nM
same,GI50,[18],190 nM
same,TGI,[18],529 nM
same,GI50,[19],285 nM
same,TGI,[19],927 nM
same,GI50,[20],43.3 nM
same,TGI,[20],130 nM
same,GI50,[21],666 nM
same,TGI,[21],> 100000 nM
same,GI50,[22],205 nM
same,TGI,[22],412 nM
same,GI50,[23],149 nM
same,TGI,[23],884 nM
same,GI50,[24],21.6 nM
same,TGI,[24],68.9 nM
same,GI50,[25],1130 nM
same,TGI,[25],3420 nM
same,GI50,[26],205 nM
same,TGI,[26],1670 nM
same,GI50,[27],337 nM
same,TGI,[27],1190 nM
same,GI50,[28],280 nM
same,TGI,[28],840 nM
same,GI50,[29],1060 nM
same,TGI,[29],5200 nM
same,GI50,[30],250 nM
same,TGI,[30],656 nM
same,GI50,[31],1980 nM
same,TGI,[31],> 26600 nM
same,GI50,[32],2840 nM
same,TGI,[32],> 25800 nM
same,GI50,[33],500 nM
same,TGI,[33],1850 nM
same,GI50,[34],224 nM
same,TGI,[34],576 nM
same,GI50,[35],2100 nM
same,TGI,[35],4640 nM
same,GI50,[36],17.5 nM
same,TGI,[36],44.9 nM
same,GI50,[37],176 nM
same,TGI,[37],333 nM
same,GI50,[38],1590 nM
same,TGI,[38],3550 nM
same,GI50,[39],269 nM
same,TGI,[39],1800 nM
same,GI50,[40],5860 nM
same,TGI,[40],> 100000 nM
same,GI50,[41],3250 nM
same,TGI,[41],> 100000 nM
same,GI50,[58],3030 nM
same,TGI,[58],> 83600 nM
same,GI50,[42],419 nM
same,TGI,[42],1690 nM
same,GI50,[43],1720 nM
same,TGI,[43],8900 nM
same,GI50,[44],38.1 nM
same,TGI,[44],212 nM
same,GI50,[45],101 nM
same,TGI,[45],559 nM
same,GI50,[47],2870 nM
same,TGI,[47],10600 nM
same,GI50,[48],727 nM
same,TGI,[48],> 100000 nM
same,GI50,[49],1240 nM
same,TGI,[49],2880 nM
same,GI50,[50],322 nM
same,TGI,[50],1350 nM
same,GI50,[51],389 nM
same,TGI,[51],4430 nM
same,GI50,[52],1730 nM
same,TGI,[52],4300 nM
same,GI50,[53],1520 nM
same,TGI,[53],14500 nM
same,GI50,[54],299 nM
same,TGI,[54],1540 nM
same,GI50,[55],117 nM
same,TGI,[55],596 nM
same,GI50,[56],1270 nM
same,TGI,[56],> 28400 nM
same,GI50,[57],525 nM
same,TGI,[57],3140 nM
